The values below come from ChEMBL document CHEMBL1138082, “Structural requirements for the substrates of the H+/peptide cotransporter PEPT2 determined by three-dimensional quantitative structure-activity relationship analysis” (J Med Chem, 2006).

Assay [1] can be described thus: Selectivity for rat PEPT2 over human PEPT1.
Assay [2] deals with T1, Solute carrier family 15 member 1 (Homo sapiens, UniProt P46059).
T1 sequence (P46059 whole entry): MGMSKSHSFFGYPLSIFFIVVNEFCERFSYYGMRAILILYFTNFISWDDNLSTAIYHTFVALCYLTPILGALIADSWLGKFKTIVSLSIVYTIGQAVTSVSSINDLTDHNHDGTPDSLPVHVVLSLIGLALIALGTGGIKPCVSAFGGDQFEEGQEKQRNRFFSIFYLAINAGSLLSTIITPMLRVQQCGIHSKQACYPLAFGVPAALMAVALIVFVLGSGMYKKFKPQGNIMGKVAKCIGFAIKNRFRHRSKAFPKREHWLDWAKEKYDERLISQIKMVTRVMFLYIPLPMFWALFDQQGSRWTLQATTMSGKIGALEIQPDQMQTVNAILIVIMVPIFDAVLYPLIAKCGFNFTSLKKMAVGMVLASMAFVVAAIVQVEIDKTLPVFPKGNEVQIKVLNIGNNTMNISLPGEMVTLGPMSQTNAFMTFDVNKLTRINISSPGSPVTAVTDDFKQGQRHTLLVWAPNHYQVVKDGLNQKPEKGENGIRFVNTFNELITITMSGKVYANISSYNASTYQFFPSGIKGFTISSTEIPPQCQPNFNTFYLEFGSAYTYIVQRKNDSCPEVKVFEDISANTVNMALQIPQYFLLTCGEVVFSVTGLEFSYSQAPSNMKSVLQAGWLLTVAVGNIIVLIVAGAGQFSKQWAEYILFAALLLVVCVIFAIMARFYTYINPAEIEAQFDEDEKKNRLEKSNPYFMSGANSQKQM
Briefly: Displacement of [14C]Gly-Sar from human PEPT1 in Caco-2 cells. The format is cell-based.

Assay [3] deals with T2, Solute carrier family 15 member 2 (Rattus norvegicus, UniProt Q63424).
T2 sequence (Q63424 whole entry): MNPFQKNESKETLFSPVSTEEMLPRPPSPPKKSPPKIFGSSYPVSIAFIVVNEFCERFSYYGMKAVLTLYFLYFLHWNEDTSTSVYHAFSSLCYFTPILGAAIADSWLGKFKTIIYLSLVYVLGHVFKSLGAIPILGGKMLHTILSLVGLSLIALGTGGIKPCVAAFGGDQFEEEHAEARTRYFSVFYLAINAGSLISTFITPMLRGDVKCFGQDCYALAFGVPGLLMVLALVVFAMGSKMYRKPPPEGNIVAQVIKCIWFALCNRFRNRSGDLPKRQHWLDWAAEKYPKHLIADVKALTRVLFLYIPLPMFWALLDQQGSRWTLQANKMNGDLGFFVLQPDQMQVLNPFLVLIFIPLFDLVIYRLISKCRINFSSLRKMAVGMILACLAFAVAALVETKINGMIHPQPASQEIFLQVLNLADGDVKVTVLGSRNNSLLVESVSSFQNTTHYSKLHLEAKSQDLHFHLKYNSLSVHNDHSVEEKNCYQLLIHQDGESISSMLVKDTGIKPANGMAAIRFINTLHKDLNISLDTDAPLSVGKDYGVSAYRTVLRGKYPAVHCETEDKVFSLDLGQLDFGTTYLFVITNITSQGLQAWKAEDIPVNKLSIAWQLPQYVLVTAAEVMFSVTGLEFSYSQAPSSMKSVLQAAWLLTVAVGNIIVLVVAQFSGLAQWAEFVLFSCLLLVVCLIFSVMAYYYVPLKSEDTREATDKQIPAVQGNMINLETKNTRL
Briefly: Displacement of [14C]Gly-Sar from rat PEPT2 in SKPT0193 C1.2 cells. The format is cell-based.

Each structure is given as a SMILES string. Residues, ends and D or L forms follow the SMILES beside them.

With `C[C@H](NC(=O)[C@H](Cc1ccccc1)NC(=O)c1ccccc1)C(=O)O`, the log selectivity ratio in assay [1] was 0.7. In addition, the Ki in assay [2] was determined as 20 µM; in assay [3], 3.7 µM.
With `CC(C)C[C@H](N)C(=O)N[C@@H](C)C(=O)N[C@@H](CCCNC(=N)N)C(=O)O` (H-Leu-Ala-Arg-OH), the inhibition constant (Ki) in assay [2] was found to be 100 µM; in assay [3], 1200 µM.
Consider `CC(C)C[C@H](N)C(=O)N[C@@H](C)C(=O)N[C@@H](CCCN=C(N)N)C(=O)O` (H-Leu-Ala-Arg-OH), for which, in assay [1], the log selectivity ratio was -1.1.
Consider `C[C@H](NC(=O)[C@@H](N)Cc1c[nH]c2ccccc12)C(=O)O` (H-Trp-Ala-OH), for which, in assay [1], the log selectivity ratio was 1.7. The compound also yielded a Ki in assay [3] of 4 µM.
